{"source": "patent US20150119363A1", "about": "“METHODS OF TREATING BACTERIAL INFECTIONS” (Rampex Pharmaceuticals, Inc., priority 2012, published 2015)", "assay_in_all_cases": "Checkerboard assay, Compound 5 with biapenem", "assay_type_in_all_cases": "cell-based", "key": {"[1]": {"tested_on": "Klebsiella pneumoniae KP1008 (KPC-2)", "conditions": "KP1008", "description": "(§1) The potentiation effect is observed by the reduction of the minimum inhibitory concentration of β-lactam antibiotics in the presence of β-lactamase inhibitors (BLIs). […] Methods for Dilution of Antimicrobial Susceptibility Tests for Bacteria That Grow Aerobically—Eighth Edition; Approved Standard. CLSI Document M07-A8, 2009). In this assay, multiple dilutions of two drugs, namely BLI and β-lactam (biapenem), are being tested, alone and in combination, at concentrations equal to, above and below their respective minimal inhibitory concentrations (MICs). BLIs are solubilized in 10% DMSO at 10 mg/mL. Stock solutions are further diluted, according to the needs of a particular assay, in Mueller Hinton Broth (MHB). Stock solution can be stored at −80° C.\n(§2) The checkerboard (CB) assay is performed in microtiter plates. Biapenem is diluted in the x axis, each column containing a single concentration of antibiotic. BLIs are diluted in the y axis, each row containing an equal concentration of BLI. The result of these manipulations is that each well of the microtiter plate contains a unique combination of concentrations of the two agents. The assay is performed in MHB with a final bacterial inoculum of 5×10^5 CFU/mL (from an early-log phase culture). Microtiter plates are incubated during 20 h at 35° C. and are read using a microtiter plate reader (Molecular Devices) at 650 nm as well as visual observation using a microtiter plate reading mirror."}, "[2]": {"tested_on": "Enterobacter cloacae ECL1058 (KPC-3, SHV-11, TEM-1)", "conditions": "ECL1058", "description": "as §1, §2"}, "[3]": {"tested_on": "Klebsiella oxytoca KX1019 (KPC-2, OXA-2)", "conditions": "KX1019", "description": "as §1, §2"}, "[4]": {"tested_on": "Escherichia coli EC1007 (KPC-3)", "conditions": "EC1007", "description": "as §1, §2"}, "[5]": {"tested_on": "Klebsiella pneumoniae KP1088 (KPC-3, SHV-11, TEM-1)", "conditions": "KP1088", "description": "as §1, §2"}, "[6]": {"tested_on": "Klebsiella pneumoniae KP1087 (KPC-2, CTX-M-15, SHV-11, TEM-1)", "conditions": "KP1087", "description": "as §1, §2"}, "[7]": {"tested_on": "Enterobacter cloacae ECL1059 (KPC-3, SHV-12, TEM-1)", "conditions": "ECL1059", "description": "as §1, §2"}, "[8]": {"tested_on": "Klebsiella pneumoniae KP1082 (KPC-2, SHV-1)", "conditions": "KP1082", "description": "as §1, §2"}, "[9]": {"tested_on": "Klebsiella pneumoniae KP1084 (KPC-3, SHV-11, TEM-1)", "conditions": "KP1084", "description": "as §1, §2"}}}
{"molecule": "O=C(O)C[C@@H]1CC[C@H](NC(=O)Cc2cccs2)B(O)O1", "note": "[Compound 5, 2-((3R,6S)-2-hydroxy-3-(2-(thiophen-2-yl)acetamido)-1,2-oxaborinan-6-yl)acetic acid]", "values": [{"measurement": "Biapenem MIC", "setting": "[1]; Compound 5 0.31 mg/L", "value": "X (X = MIC of less than 0.5 mg/L.)"}, {"measurement": "Biapenem MIC", "setting": "[1]; Compound 5 0.625 mg/L", "value": "X (X = MIC of less than 0.5 mg/L.)"}, {"measurement": "Biapenem MIC", "setting": "[1]; Compound 5 5 mg/L", "value": "NG (NG = No Growth.)"}, {"measurement": "Biapenem MIC", "setting": "[1]; Compound 5 10 mg/L", "value": "NG (NG = No Growth.)"}, {"measurement": "Biapenem MIC", "setting": "[1]; Compound 5 […]", "value": "X (X = MIC of less than 0.5 mg/L.)"}, {"measurement": "Biapenem MIC", "setting": "[2]; Compound 5 0.31 mg/L", "value": "Y (Y = MIC of 0.5 mg/L to 4 mg/L.)"}, {"measurement": "Biapenem MIC", "setting": "[2]; Compound 5 0.625 mg/L", "value": "Y (Y = MIC of 0.5 mg/L to 4 mg/L.)"}, {"measurement": "Biapenem MIC", "setting": "[2]; Compound 5 5 mg/L", "value": "X (X = MIC of less than 0.5 mg/L.)"}, {"measurement": "Biapenem MIC", "setting": "[2]; Compound 5 10 mg/L", "value": "X (X = MIC of less than 0.5 mg/L.)"}, {"measurement": "Biapenem MIC", "setting": "[3]; Compound 5 0.31 mg/L", "value": "Y (Y = MIC of 0.5 mg/L to 4 mg/L.)"}, {"measurement": "Biapenem MIC", "setting": "[3]; Compound 5 0.625 mg/L", "value": "Y (Y = MIC of 0.5 mg/L to 4 mg/L.)"}, {"measurement": "Biapenem MIC", "setting": "[3]; Compound 5 5 mg/L", "value": "X (X = MIC of less than 0.5 mg/L.)"}, {"measurement": "Biapenem MIC", "setting": "[3]; Compound 5 10 mg/L", "value": "X (X = MIC of less than 0.5 mg/L.)"}, {"measurement": "Biapenem MIC", "setting": "[3]; Compound 5 […]", "value": "Y (Y = MIC of 0.5 mg/L to 4 mg/L.)"}, {"measurement": "Biapenem MIC", "setting": "[4]; Compound 5 0.31 mg/L", "value": "X (X = MIC of less than 0.5 mg/L.)"}, {"measurement": "Biapenem MIC", "setting": "[4]; Compound 5 0.625 mg/L", "value": "X (X = MIC of less than 0.5 mg/L.)"}, {"measurement": "Biapenem MIC", "setting": "[4]; Compound 5 5 mg/L", "value": "X (X = MIC of less than 0.5 mg/L.)"}, {"measurement": "Biapenem MIC", "setting": "[4]; Compound 5 […]", "value": "X (X = MIC of less than 0.5 mg/L.)"}, {"measurement": "Biapenem MIC", "setting": "[5]; Compound 5 0.31 mg/L", "value": "X (X = MIC of less than 0.5 mg/L.)"}, {"measurement": "Biapenem MIC", "setting": "[5]; Compound 5 0.625 mg/L", "value": "X (X = MIC of less than 0.5 mg/L.)"}, {"measurement": "Biapenem MIC", "setting": "[5]; Compound 5 5 mg/L", "value": "X (X = MIC of less than 0.5 mg/L.)"}, {"measurement": "Biapenem MIC", "setting": "[5]; Compound 5 10 mg/L", "value": "X (X = MIC of less than 0.5 mg/L.)"}, {"measurement": "Biapenem MIC", "setting": "[6]; Compound 5 0.31 mg/L", "value": "Z (Z = MIC of greater than 4 mg/L.)"}, {"measurement": "Biapenem MIC", "setting": "[6]; Compound 5 0.625 mg/L", "value": "Z (Z = MIC of greater than 4 mg/L.)"}, {"measurement": "Biapenem MIC", "setting": "[6]; Compound 5 5 mg/L", "value": "X (X = MIC of less than 0.5 mg/L.)"}, {"measurement": "Biapenem MIC", "setting": "[7]; Compound 5 0.31 mg/L", "value": "X (X = MIC of less than 0.5 mg/L.)"}, {"measurement": "Biapenem MIC", "setting": "[7]; Compound 5 0.625 mg/L", "value": "X (X = MIC of less than 0.5 mg/L.)"}, {"measurement": "Biapenem MIC", "setting": "[7]; Compound 5 5 mg/L", "value": "X (X = MIC of less than 0.5 mg/L.)"}, {"measurement": "Biapenem MIC", "setting": "[7]; Compound 5 10 mg/L", "value": "X (X = MIC of less than 0.5 mg/L.)"}, {"measurement": "Biapenem MIC", "setting": "[7]; Compound 5 […]", "value": "X (X = MIC of less than 0.5 mg/L.)"}, {"measurement": "Biapenem MIC", "setting": "[8]; Compound 5 0.31 mg/L", "value": "X (X = MIC of less than 0.5 mg/L.)"}, {"measurement": "Biapenem MIC", "setting": "[8]; Compound 5 0.625 mg/L", "value": "X (X = MIC of less than 0.5 mg/L.)"}, {"measurement": "Biapenem MIC", "setting": "[8]; Compound 5 5 mg/L", "value": "X (X = MIC of less than 0.5 mg/L.)"}, {"measurement": "Biapenem MIC", "setting": "[8]; Compound 5 10 mg/L", "value": "X (X = MIC of less than 0.5 mg/L.)"}, {"measurement": "Biapenem MIC", "setting": "[8]; Compound 5 […]", "value": "X (X = MIC of less than 0.5 mg/L.)"}, {"measurement": "Biapenem MIC", "setting": "[9]; Compound 5 0.31 mg/L", "value": "Z (Z = MIC of greater than 4 mg/L.)"}, {"measurement": "Biapenem MIC", "setting": "[9]; Compound 5 0.625 mg/L", "value": "Z (Z = MIC of greater than 4 mg/L.)"}, {"measurement": "Biapenem MIC", "setting": "[9]; Compound 5 5 mg/L", "value": "X (X = MIC of less than 0.5 mg/L.)"}, {"measurement": "Biapenem MIC", "setting": "[9]; Compound 5 10 mg/L", "value": "X (X = MIC of less than 0.5 mg/L.)"}]}
